Experimental data taken from the NIST ThermoML archive (doi:10.1021/je400830w).

Columns and labels:
[1] = wn = mass fraction of the nth substance listed; conditions: 100 kPa, Liquid; for mass density: Vibrating tube method
[2] = refractive index (Na D-line) (dimensionless); wn = mass fraction of the nth substance listed; conditions: 100 kPa, Liquid, Standard Abbe refractometry

O=C([O-])[C@@H]1CCCN1.[Na+] [sodium L-prolinate] + O
Conditions	mass density, [1] [kg/m3]	refractive index, [2]	viscosity, [1] [mPa·s]
298.15 K, w1 = 0.05	1015.28	1.34005	1.16
298.15 K, w1 = 0.1	1033.9	1.34767	1.456
298.15 K, w1 = 0.2	1071.61	1.36337	2.292
298.15 K, w1 = 0.3	1109.81	1.37937	3.787
298.15 K, w1 = 0.4	1148.69	1.39604	5.56
303.15 K, w1 = 0.05	1013.73	1.33942	1.02
303.15 K, w1 = 0.1	1032.18	1.34706	1.267
303.15 K, w1 = 0.2	1069.51	1.36278	1.967
303.15 K, w1 = 0.3	1106.73	1.37869	3.327
303.15 K, w1 = 0.4	1145.79	1.39498	4.801
308.15 K, w1 = 0.05	1011.98	1.33879	0.9028
308.15 K, w1 = 0.1	1030.28	1.34633	1.114
308.15 K, w1 = 0.2	1067.29	1.36201	1.702
308.15 K, w1 = 0.3	1104.08	1.37768	2.923
308.15 K, w1 = 0.4	1142.83	1.39387	4.21
313.15 K, w1 = 0.05	1010.05	1.33802	0.8062
313.15 K, w1 = 0.1	1028.22	1.3456	0.984
313.15 K, w1 = 0.2	1064.94	1.36125	1.482
313.15 K, w1 = 0.3	1101.95	1.37678	2.509
313.15 K, w1 = 0.4	1139.8	1.39268	3.53
318.15 K, w1 = 0.05	1007.96	1.33724	0.7245
318.15 K, w1 = 0.1	1026.01	1.34502	0.8784
318.15 K, w1 = 0.2	1062.47	1.36042	1.309
318.15 K, w1 = 0.3	1099.31	1.37586	2.193
318.15 K, w1 = 0.4	1136.71	1.39154	2.997
323.15 K, w1 = 0.05	1005.72	1.33642	0.6556
323.15 K, w1 = 0.1	1023.66	1.34433	0.7874
323.15 K, w1 = 0.2	1059.89	1.35984	1.164
323.15 K, w1 = 0.3	1096.7	1.37526	1.94
323.15 K, w1 = 0.4	1133.56	1.39048	2.581
328.15 K, w1 = 0.05	1003.32	1.33569	0.5983
328.15 K, w1 = 0.1	1021.18	1.34373	0.7118
328.15 K, w1 = 0.2	1057.21	1.35931	1.038
328.15 K, w1 = 0.3	1092.78	1.37439	1.69
328.15 K, w1 = 0.4	1130.34	1.38912	2.241
333.15 K, w1 = 0.05	1000.79	1.33497	0.5454
333.15 K, w1 = 0.1	1018.58	1.34306	0.6471
333.15 K, w1 = 0.2	1054.42	1.35882	0.9221
333.15 K, w1 = 0.3	1090.33	1.37364	1.519
333.15 K, w1 = 0.4	1127.09	1.38795	1.96
338.15 K, w1 = 0.05	998.13	1.33424	0.5008
338.15 K, w1 = 0.1	1015.87	1.34256	0.593
338.15 K, w1 = 0.2	1051.56	1.35866	0.8345
338.15 K, w1 = 0.3	1088.2	1.37322	1.361
338.15 K, w1 = 0.4	1123.8	1.38677	1.728
343.15 K, w1 = 0.05	995.35	1.33349	0.4617
343.15 K, w1 = 0.1	1013.04	1.34213	0.5426
343.15 K, w1 = 0.2	1048.61	1.35842	0.7524
343.15 K, w1 = 0.3	1085.34	1.37279	1.203
343.15 K, w1 = 0.4	1120.46	1.38566	1.536
